Test results as given in patent US20250136634A1, “CAP ANALOG AND USE THEREOF” (SHANGHAI HONGENE BIOTECH CORPORATION, priority 2021, published 2025).

What was measured:
[1] = target: T7 RNA polymerase (Escherichia phage T7, UniProt P00573); experiment: Capping efficiency of mRNA from T7 in vitro transcription, RNaseH cleavage and LC-MS (Example 2); assay type: biochemical; settings: Example 2, T7 RNA polymerase IVT at 37° C. for 2 hs
From the text: (5) Treatment with Antarctic Phosphatase:

[2] = system: INFB; experiment: Immunogenicity: expression of intracellular inflammatory factor INFB by qPCR in Hela cells; assay type: cell-based; settings: 2 ug mRNA/well, 24 hours after transfection, relative to ^m7GpppApG cap, mean±SD
Method: In this example, Hela cells (ATCC CCL-2) were transfected with luciferase mRNAs (Gaussia luciferase) comprising various initial cap structures (the initial cap nucleotide structures comprised are: ^m7GpppApG, ^m7GpppA2′Ome pG, ^m7G3′OmepppA2′O-ethylpG, ^m7G2′OmepppA2′O-ethylpG, ^m7G3′OmeppA2′O-MOEpG, ^m7G2′OmepppA2′O-MOEpG, ^m7Gppp(N6-methyladenine)2′O-MOEpG, ^m7G2′OmepppC2′O-ethylpC, ^m7G3′OmepppA2′O-MOEpU), and collected after 24 hours. The expression of intracellular inflammatory factors was detected, and the relative abundance of the factors is in proportional to the immunogenicity of the mRNA.
(§1) Hela cells were seeded at a density of 4×10^5/well in 6-well plates, and transfection was carried out when the cell density reached approximately 80%. Each well was transfected with 2 ug mRNA, and the transfection reagent was Lipofectamine MessengerMAX Transfection Reagent (Invitrogen), and the transfection steps were carried out according to the instructions. Twenty-four hours after transfection, the cells were collected and TRIzol was used to extract RNAs which were then reverse transcribed into cDNAs. The expression of intracellular inflammatory factors was detected using real-time quantitative fluorescent PCR with B-actin as the internal reference. The detection of each gene was repeated 3 times, and the result of the expression of each gene is expressed as the relative value to the result of ^m7GpppApG cap.
as §1, with “The expression of intracellular inflammatory factors was detected, and the relative abundant of the factors is in proportional to the immunogenicity of the mRNA. Hela” for “Hela”, “β-actin” for “B-actin”

[3] = Example 3 (IVT at 50° C.), β-actin reference

Chain of T7 RNA polymerase (P00573 whole entry): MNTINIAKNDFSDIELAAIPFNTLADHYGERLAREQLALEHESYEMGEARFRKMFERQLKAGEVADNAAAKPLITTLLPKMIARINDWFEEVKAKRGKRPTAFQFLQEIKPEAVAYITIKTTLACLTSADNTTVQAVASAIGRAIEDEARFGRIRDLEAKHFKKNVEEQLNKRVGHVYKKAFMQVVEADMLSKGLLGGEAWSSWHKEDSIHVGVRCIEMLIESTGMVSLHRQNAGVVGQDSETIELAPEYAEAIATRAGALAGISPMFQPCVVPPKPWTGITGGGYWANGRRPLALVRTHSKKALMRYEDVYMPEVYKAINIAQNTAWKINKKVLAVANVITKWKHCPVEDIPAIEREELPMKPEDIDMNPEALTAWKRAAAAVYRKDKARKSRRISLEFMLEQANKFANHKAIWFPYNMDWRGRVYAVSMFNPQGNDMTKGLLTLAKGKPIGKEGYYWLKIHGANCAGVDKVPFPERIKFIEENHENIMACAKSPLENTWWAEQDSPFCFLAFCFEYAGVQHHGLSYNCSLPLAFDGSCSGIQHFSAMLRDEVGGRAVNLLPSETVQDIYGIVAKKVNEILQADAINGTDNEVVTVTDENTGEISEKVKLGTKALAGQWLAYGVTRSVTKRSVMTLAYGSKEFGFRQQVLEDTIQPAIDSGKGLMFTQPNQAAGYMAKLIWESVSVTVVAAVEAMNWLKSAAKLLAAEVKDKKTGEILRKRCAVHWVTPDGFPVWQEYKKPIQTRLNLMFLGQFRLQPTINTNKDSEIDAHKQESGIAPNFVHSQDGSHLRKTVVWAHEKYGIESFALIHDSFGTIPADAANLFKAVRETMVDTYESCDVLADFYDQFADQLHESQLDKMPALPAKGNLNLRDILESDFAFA

Substance | Capping efficiency [1] [%] | Expression of INFB ([2]; Example 2, B-actin reference) | Expression of INFB [2, 3]
^m7Gppp(N6-methyladenine)2′O-MOEpG | 84 | 0.46 ± 0.02 | 
^m7G3′OmepppA2′O-MOEpU | 93 | 1.18 ± 0.08 | 
^m7G2′OmepppA2′O-ethylpG | 92 | 0.42 ± 0.02 | 
^m7G2′OmepppC2′O-ethylpC | 92 | 0.78 ± 0.01 | 
^m7G3′OmepppA2′O-MOEpG | 89 | 0.41 ± 0.01 | 
^m7G2′OmepppA2′O-MOEpG | 88 | 0.24 ± 0.03 | 
^m7G3′OmepppA2′O-ethylpG | 94 | 0.47 ± 0.01 | 
^m7GBeta-D-LNApppA2′O-MOEpG |  |  | 0.09 ± 0.02
^m7GpppApG [reference compound] | 98 | 1 ± 0.08 | 1 ± 0.13
^m7GAlpha-L-LNApppA2′O-ethyl pG |  |  | 0.11 ± 0.03
^m7GpppA2′Ome pG [reference compound] | 97 | 0.61 ± 0.01 | 0.63 ± 0.04
